Data reported in patent publication US5679695A, “Aryl and heteroaryl compounds having anti-retrovirus activity” (The University of Connecticut, priority 1995, dated 1997).
Values joined by “and” are separate entries in the source; they are usually repeats but may differ in a detail not shown here. Equal values may be shown once. Read-outs that look alike come from different tables or passages of the source.

Tests used:
HIV-1 [1] = assay: microbe, parasite or virus in culture; type: cell-based; details: for viability at 17.9 µM: 1.79 × 10^-5 Molar
Method: (§1) Another assay for testing the efficacy of the compounds is the procedure* used in the National Cancer Institute's test for agents active against Human Immunodeficiency Virus (HIV). It is designed to detect agents acting at any stage of the virus reproductive cycle. The assay basically involves the killing of T4 lymphocytes by HIV. Small amounts of HIV are added to cells, and a complete cycle of virus reproduction is necessary to obtain the required cell killing. Agents that interact with virions, cells, or virus gene-products to interfere with viral activities will protect cells from cytolysis. The system is automated in several features to accommodate large numbers of candidate agents and is generally designed to detect anti-HIV activity. However, compounds that degenerate, or are rapidly metabolized in the culture conditions may not show activity in this screen. All tests are compared with at least one positive (e.g., AZT-treated) control done at the same time under identical conditions.
(§2) * Weislow. O. W., Kiser, R., Fine, D., Bader, J., Shoemaker, R. H., Boyd, M. R.: New soluble-formazan assay for HIV-1 cytopathic effects: application to high-flux screening of synthetic and natural products for AIDS-antiviral activity. J. Natl. Cancer Inst. 81:577-586, 1989.
(§3) 1. The Candidate agent is dissolved in dimethyl sulfoxide (unless otherwise instructed) then diluted 1:100 in cell culture medium before preparing serial half-log10 dilutions. T4 lymphocytes (CEM cell line) are added and after a brief interval HIV-1 added, resulting in a 1:200 final dilution of the compound. Uninfected cells with the compound serve as a toxicity control, and infected and uninfected cells without compound serve as basic controls.
(§4) 2. Cultures are incubated at 37° in a 5% carbon dioxide atmosphere for 6 days.
(§5) 3. The tetrazolium salt, XTT, is added to all wells, and cultures are incubated to allow formazan color development by viable cells.
(§6) 4. Individual wells are analyzed spectrophotometrically to quantitate formazan production, and in addition are viewed microscopically for detection of viable cells and confirmation of protective activity.
(§7) 5. Drug-treated virus-infected cells are compared with drug-treated noninfected cells and with other appropriate controls (untreated infected and untreated noninfected: cells, drug-containing wells without cells, etc.) on the same plate.
(§8) 6. Data are reviewed in comparison with other tests done at the same time and a determination about activity is made.

[2] = XTT toxicity control, uninfected culture, CEM-V; type: cell-based; details: human, cem-v cells, read-out: Uninfected culture response
Method: as §1, §2, §3, §4, §5, §6, §7, §8

CEM-V = assay: XTT toxicity control, uninfected culture, CEM-V; type: cell-based
Method: as §1, §2, §3, §4, §5, §6, §7, §8

[3] = XTT toxicity control, uninfected culture, CEM-Z; type: cell-based; details: human, cem-z cells, read-out: Uninfected culture response
Method: as §1, §2, §3, §4, §5, §6, §7, §8

CEM-Z = assay: XTT toxicity control, uninfected culture, CEM-Z; type: cell-based
Method: as §1, §2, §3, §4, §5, §6, §7, §8

HIV-1 [4] = assay: XTT assay of protection from HIV-1 cytopathic effect, infected, CEM-IW; type: cell-based, Human Immunodeficiency Virus; details: Human immunodeficiency virus 1, CEM-IW, summary table; read-out: CEM-IW EC50
Method: as §1, §2, §3, §4, §5, §6, §7, §8

HIV = assay: Anti-HIV activity in MT-2; type: cell-based; details: Human immunodeficiency virus 1; MT-2, summary table; read-out: MT-2 EC50
Text: Obviously, there is a structure activity relationship with respect to the efficacy of the compounds of the present invention. Factors that affect the relationship may include steric effects, electronic effects, (electron withdrawing or electron donating ability), resonance effects, hydrophobic,hydrophilic, hydrogen bonding parameters, etc. […] Based on the data, it has been determined that there is a direct correlation between the log (EC50)^-1 and the electronic effect of a substituent (a) or more precisely the sum of the sigma (σ) values. (The greater the electron withdrawing ability of a substituent, the higher the value of σ, while a better electron donating group has a lower value of σ.) There appears to be a direct correlation between log (EC50)^-1 and the Σσ; as the Σσ increases, so does the log (EC50)^-1. The addition of substituents to the diphenyl sulfone will affect the factors discussed hereinabove, thus both the log (EC50)^-1 and the Σσ will be affected. Thus for the diphenyl sulfone derivative [drawing 25] the relation is […]

[5] = Storage in a clear glass bottle; type: physicochemical; details: several weeks of storage in a clear glass bottle

Compound: O=[N+]([O-])c1ccccc1S(=O)(=O)c1ccccc1 [Compound 1, 1-Nitro-2-(phenylsulfonyl)benzene]
- Conclusion (HIV-1 [1]; CEM-V): ACTIVE
- Infected culture response (HIV-1 [1]; CEM-V, 1.79 × 10^-6 Molar, 1.79 µM): 9.3%
- Infected culture response (HIV-1 [1]; CEM-V, 1.79 × 10^-7 Molar, 0.179 µM): 8.7%
- Infected culture response (HIV-1 [1]; CEM-V, 1.89 × 10^-4 Molar, 189 µM): 87.3%
- Infected culture response (HIV-1 [1]; CEM-V, 1.89 × 10^-5 Molar, 18.9 µM): 110.5%
- Infected culture response (HIV-1 [1]; CEM-V, 1.89 × 10^-6 Molar, 1.89 µM): 11.4%
- Infected culture response (HIV-1 [1]; CEM-V, 1.90 × 10^-7 Molar, 0.19 µM): 12.1%
- Infected culture response (HIV-1 [1]; CEM-V, 5.66 × 10^-6 Molar, 5.66 µM): 36.6%
- Infected culture response (HIV-1 [1]; CEM-V, 5.67 × 10^-7 Molar, 0.567 µM): 8.3%
- Infected culture response (HIV-1 [1]; CEM-V, 5.68 × 10^-8 Molar, 0.0568 µM): 9.4%
- Infected culture response (HIV-1 [1]; CEM-V, 5.98 × 10^-5 Molar, 59.8 µM): 95.2%
- Infected culture response (HIV-1 [1]; CEM-V, 5.99 × 10^-6 Molar, 5.99 µM): 65.3% and 90.9%
- Infected culture response (HIV-1 [1]; CEM-V, 6.00 × 10^-7 Molar, 0.6 µM): 8.3%
- Infected culture response (HIV-1 [1]; CEM-V, 6.01 × 10^-8 Molar, 0.0601 µM): 8.7%
- Conclusion (HIV-1 [1]; CEM-Z): ACTIVE
- Infected culture response (HIV-1 [1]; CEM-Z, 1.79 × 10^-6 Molar, 1.79 µM): 47.1% and 26.4%
- Infected culture response (HIV-1 [1]; CEM-Z, 5.65 × 10^-5 Molar, 56.5 µM): 93.1%
- Infected culture response (HIV-1 [1]; CEM-Z, 5.66 × 10^-6 Molar, 5.66 µM): 58.3%
- viability at 17.9 µM (HIV-1 [1]; Human immunodeficiency virus 1, CEM-V, read-out: Infected culture response): 92.2%
- viability at 1.79 µM (HIV-1 [1]; Human immunodeficiency virus 1, CEM-V, 1.79 × 10^-6 Molar, read-out: Infected culture response): 8%
- viability at 0.179 µM (HIV-1 [1]; Human immunodeficiency virus 1, CEM-V, 1.79 × 10^-7 Molar, read-out: Infected culture response): 10.3%
- viability at 189 µM (HIV-1 [1]; Human immunodeficiency virus 1, CEM-V, 1.89 × 10^-4 Molar, read-out: Infected culture response): 86%
- viability at 18.9 µM (HIV-1 [1]; Human immunodeficiency virus 1, CEM-V, 1.89 × 10^-5 Molar, read-out: Infected culture response): 100%
- viability at 1.89 µM (HIV-1 [1]; Human immunodeficiency virus 1, CEM-V, 1.89 × 10^-6 Molar, read-out: Infected culture response): 18.2%
- viability at 0.19 µM (HIV-1 [1]; Human immunodeficiency virus 1, CEM-V, 1.90 × 10^-7 Molar, read-out: Infected culture response): 14%
- viability at 5.66 µM (HIV-1 [1]; Human immunodeficiency virus 1, CEM-V, 5.66 × 10^-6 Molar, read-out: Infected culture response): 31.1%
- viability at 0.567 µM (HIV-1 [1]; Human immunodeficiency virus 1, CEM-V, 5.67 × 10^-7 Molar, read-out: Infected culture response): 10.6%
- viability at 0.0568 µM (HIV-1 [1]; Human immunodeficiency virus 1, CEM-V, 5.68 × 10^-8 Molar, read-out: Infected culture response): 10.1%
- viability at 59.8 µM (HIV-1 [1]; Human immunodeficiency virus 1, CEM-V, 5.98 × 10^-5 Molar, read-out: Infected culture response): 79.7%
- viability at 0.6 µM (HIV-1 [1]; Human immunodeficiency virus 1, CEM-V, 6.00 × 10^-7 Molar, read-out: Infected culture response): 15.5%
- viability at 0.0601 µM (HIV-1 [1]; Human immunodeficiency virus 1, CEM-V, 6.01 × 10^-8 Molar, read-out: Infected culture response): 14.7%
- viability at 1.79 µM (HIV-1 [1]; Human immunodeficiency virus 1, CEM-V, dose printed 1.79 × 10^-6 Molar in the line between 5.66 × 10^-6 and 5.65 × 10^-5, read-out: Infected culture response): 53.1%
- viability at 17.9 µM (HIV-1 [1]; Human immunodeficiency virus 1, CEM-Z, read-out: Infected culture response): 85.7%
- viability at 56.5 µM (HIV-1 [1]; Human immunodeficiency virus 1, CEM-Z, 5.65 × 10^-5 Molar, read-out: Infected culture response): 92.3%
- viability at 5.66 µM (HIV-1 [1]; Human immunodeficiency virus 1, CEM-Z, 5.66 × 10^-6 Molar, read-out: Infected culture response): 74.5%
- viability at 1.79 µM (HIV-1 [1]; Human immunodeficiency virus 1, CEM-Z, dose printed 1.79 × 10^-6 Molar in the line between 5.66 × 10^-6 and 5.65 × 10^-5, read-out: Infected culture response): 91.3%
- viability at 0.179 µM ([2]; 1.79 × 10^-7 Molar): 123%
- viability at 189 µM ([2]; 1.89 × 10^-4 Molar): 86.7%
- viability at 18.9 µM ([2]; 1.89 × 10^-5 Molar): 99.9%
- viability at 1.89 µM ([2]; 1.89 × 10^-6 Molar): 97.9%
- viability at 0.19 µM ([2]; 1.90 × 10^-7 Molar): 96.9%
- viability at 59.8 µM ([2]; 5.98 × 10^-5 Molar): 105%
- viability at 5.99 µM ([2]; 5.99 × 10^-6 Molar): 111%
- viability at 0.6 µM ([2]; 6.00 × 10^-7 Molar): 90.4%
- viability at 0.0601 µM ([2]; 6.01 × 10^-8 Molar): 105%
- Uninfected culture response (CEM-V; 1.79 × 10^-7 Molar, 0.179 µM): 106.5%
- Uninfected culture response (CEM-V; 1.89 × 10^-4 Molar, 189 µM): 89.8%
- Uninfected culture response (CEM-V; 1.89 × 10^-5 Molar, 18.9 µM): 100.7%
- Uninfected culture response (CEM-V; 1.89 × 10^-6 Molar, 1.89 µM): 104.6%
- Uninfected culture response (CEM-V; 1.90 × 10^-7 Molar, 0.19 µM): 105.1%
- Uninfected culture response (CEM-V; 5.67 × 10^-7 Molar, 0.567 µM): 112.5% and 77.9%
- Uninfected culture response (CEM-V; 5.68 × 10^-8 Molar, 0.0568 µM): 120.4% and 99.0%
- Uninfected culture response (CEM-V; 5.98 × 10^-5 Molar, 59.8 µM): 99.2%
- Uninfected culture response (CEM-V; 5.99 × 10^-6 Molar, 5.99 µM): 111.3%
- Uninfected culture response (CEM-V; 6.00 × 10^-7 Molar, 0.6 µM): 98.3%
- Uninfected culture response (CEM-V; 6.01 × 10^-8 Molar, 0.0601 µM): 101.6%
- viability at 17.9 µM ([3]; 1.79 × 10^-5 Molar): 101%
- viability at 1.79 µM ([3]; 1.79 × 10^-6 Molar): 97.9%
- viability at 0.179 µM ([3]; 1.79 × 10^-7 Molar): 101%
- viability at 56.5 µM ([3]; 5.65 × 10^-5 Molar): 103%
- viability at 5.66 µM ([3]; 5.66 × 10^-6 Molar): 98.7%
- viability at 0.567 µM ([3]; 5.67 × 10^-7 Molar): 99.6%
- viability at 0.0568 µM ([3]; 5.68 × 10^-8 Molar): 101%
- Uninfected culture response (CEM-Z; 1.78 × 10^-4 Molar, 178 µM): 72.1%
- Uninfected culture response (CEM-Z; 1.79 × 10^-5 Molar, 17.9 µM): 103.0%
- Uninfected culture response (CEM-Z; 1.79 × 10^-6 Molar, 1.79 µM): 99.7%
- Uninfected culture response (CEM-Z; 1.79 × 10^-7 Molar, 0.179 µM): 102.5%
- Uninfected culture response (CEM-Z; 5.65 × 10^-5 Molar, 56.5 µM): 101.8%
- Uninfected culture response (CEM-Z; 5.66 × 10^-6 Molar, 5.66 µM): 100.0%
- Uninfected culture response (CEM-Z; 5.67 × 10^-7 Molar, 0.567 µM): 99.8%
- Uninfected culture response (CEM-Z; 5.68 × 10^-8 Molar, 0.0568 µM): 104.3%
- IC50 (CEM-Z; uninfected culture (toxicity)): > 178 µM
- EC50 (HIV-1 [4]): 4.41 µM
- EC50 (HIV): 1.16 µM

Compound: Cc1ccc(S(=O)(=O)c2ccccc2[N+](=O)[O-])cc1 [Compound 2, 1-(4-Methylphenylsulfonyl)-2-nitrobenzene]
- EC50 (HIV-1 [4]): 14.5 µM
- EC50 (HIV): 3.26 µM
- colour change on storage [5]: turned light green
